The source of these data is patent US11179349B2, “Use of tumor gene methylation regulator and anti-tumor drugs” (priority 2016, dated 2021).

One data set concerns Huh-7 (human hepatoma). The data set can be described thus: CellTiter-Glo luminescent cell viability assay, human hepatoma cells. The note with it: Huh-7, 48 h. Background: In ATP-based viability assays light output follows the ATP content of the culture.
The test system of data set [1] is hepatoma cell line Huh-7, and breast cancer cell lines T47D and MCF-7. In words: Previous work: in vitro cultured human solid tumor cells treated with 3′-deoxyadenosine alone. The class given is cell-based. The note with it: Huh-7, T47D and MCF-7, inventors' previous work. From the text:
However, its effect was still not satisfactory.

In data set [2] the test system is MCF-7 (human breast cancer). The data set can be described thus: CellTiter-Glo luminescent cell viability assay, human breast cancer cells. The class given is cell-based. The note with it: MCF7, MCF-7, 48 hours, drug used alone. How it is done:
The above tumor cell line derived from ATCC was cultured in an incubator with 5% CO2 at 37° C.
(4). The culture plate was cultured overnight in an incubator with 5% CO2 and 100% relative humidity at 37° C.

The test system of data set [3] is human gastric cancer (SGC 7901). In words: Experiment 9: suppression of gastric cancer (SGC 7901) xenografts with 5-fluorouracil and 3′-deoxyadenosine. The class given is in vivo, BALB/c nude mouse. The settings on record: 5-fluorouracil 6 mg/kg, intravenous, 28th day.
Excerpt: (§3) The inoculated well-grown subcutaneously xenografted tumors were removed and cut into tumor tissue blocks with a size of about 2×2×2 mm for later use. After being anesthetized, the mice were placed in the left lateral decubitus position, the tumor tissue blocks were put into the armpits of the mice, the skin was sutured and disinfected, and then the mice were put back into the cages and fed normally. The mice were grouped after the tumors grew to have a diameter of about 7 to 8 mm. […] The general symptoms of the animals were observed before and after the administration. The longer diameter (a) and shorter diameter (b) of each of the solid tumors were measured twice per week after the first administration, the tumor volume was calculated according to the formula: volume (V)=½×a×b^2, and the animals were weighed. The drug was discontinued after administration for 14 days. On the 7th day after stopping the administration, the animals were weighed and then were sacrificed by cervical dislocation, and the solid tumors were removed and weighed. The data obtained were analyzed by SPSS statistical analysis software.
Each group was administered with a drug once daily (volume 0.2 mL, intravenously) and measured twice per week.
Data set [4] deals with human gastric cancer xenografts (SGC-7901). In words: Experiment 6: suppression of gastric cancer (SGC-7901) xenografts with capecitabine and 3′-deoxyadenosine. The format is in vivo, BALB/c nude mouse. The settings on record: capecitabine 400 mg/Kg, 27th day.
Excerpt: as §3
Data set [5] concerns human colon cancer xenografts (HT-29). In words: Experiment 7: suppression of colon cancer (HT-29) xenografts with capecitabine and 3′-deoxyadenosine. The format is in vivo, BALB/c nude mouse. The settings on record: capecitabine 400 mg/Kg, 31st day.
Excerpt: as §3
Data set [6] has as its system human breast cancer xenografts (MCF-7). In words: Experiment 1: suppression of breast cancer (MCF-7) xenografts with capecitabine and 3′-deoxyadenosine. The format is in vivo, BALB/c nude mouse. The settings on record: capecitabine 400 mg/Kg/day. How it is done: (§1) Human leukemia cells HL60, human gastric cancer cell line SGC-7901, human breast cancer cells MCF-7, human colon cancer cells HT-29, human lung cancer cells A-549, and human hepatoma cells Huh-7 were routinely cultured in vitro and digested and centrifuged to prepare cell suspensions at a concentration of about 1×10^7 cells/mL, respectively, which were inoculated subcutaneously in the right armpits of the mice at 0.2 mL per mouse.
(§2) The inoculated well-grown subcutaneously xenografted tumors were removed and cut into tumor tissue blocks with a size of about 2×2×2 mm for later use. After being anesthetized, the mice were placed in the left lateral decubitus position, the tumor tissue blocks were put into the armpits of the mice, the skin was sutured and disinfected, and then the mice were put back into the cages and fed normally. The mice were grouped after the tumors grew to have a diameter of about 7 to 8 mm. […] The longer diameter (a) and shorter diameter (b) of each of the solid tumors were measured twice per week after the first administration, the tumor volume was calculated according to the formula: volume (V)=½×a×b^2, and the animals were weighed. […] The data obtained were analyzed by SPSS statistical analysis software. […]

The subject of data set [7] is human lung cancer xenografts (A-549). The data set can be described thus: Experiment 4: suppression of lung cancer (A-549) xenografts with cisplatin and 3′-deoxyadenosine. The class given is in vivo, BALB/c nude mouse. As to the method: as §1
The inoculated well-grown subcutaneously xenografted tumors were removed and cut into tumor tissue blocks with a size of about 2×2×2 mm for later use. After being anesthetized, the mice were placed in the left lateral decubitus position, the tumor tissue blocks were put into the armpits of the mice, the skin was sutured and disinfected, and then the mice were put back into the cages and fed normally. The mice were grouped after the tumors grew to have a diameter of about 7 to 8 mm. Generally, after being grouped, the mice were administered by gavage with a drug or with a blank solution (solvent: 0.9% (g/mL) sodium chloride injection) for continuous 14 days, once per day, administrated at a volume of 20 mL/kg. Special situations will be described separately in corresponding examples. The general symptoms of the animals were observed before and after the administration. The longer diameter (a) and shorter diameter (b) of each of the solid tumors were measured twice per week after the first administration, the tumor volume was calculated according to the formula: volume (V)=½×a×b^2, and the animals were weighed. The drug was discontinued after administration for 14 days. On the 7th day after stopping the administration, the animals were weighed and then were sacrificed by cervical dislocation, and the solid tumors were removed and weighed. The data obtained were analyzed by SPSS statistical analysis software.
Formula for Evaluation of the Therapeutic Efficacy: Tumor-growth inhibition rate=(average tumor weight in solvent control group−average tumor weight in administered control group)/average tumor weight in solvent control group×100%.
On the 14th day after inoculation of the mice with lung cancer A-549 cells, xenografted tumor models were successful, and then treated with drugs. Refer to FIG. 4 for experimental results.

Data set [8] deals with human leukemia xenografts (HL60). The data set can be described thus: Experiment 2: suppression of leukemia (HL60) xenografts with doxorubicin and 3′-deoxyadenosine. The class given is in vivo, BALB/c nude mouse. As to the method: as §1, §2
In data set [9] the test system is human hepatoma xenografts (Huh-7). In words: Experiment 5: suppression of hepatoma (Huh-7) xenografts with doxorubicin and 3′-deoxyadenosine. The class given is in vivo, BALB/c nude mouse. The settings on record: doxorubicin 2.5 mg/kg, 37th day.
Excerpt: as §3
On the 23rd day after inoculation of the mice with human hepatoma Huh-7 cells, xenografted tumor models were successful, and then treated with drugs.

What is called IC50 is the midpoint of a concentration-inhibition curve. Lower therefore signals greater potency in that assay.

Each structure is given as a SMILES string. Several values for one entry are separate records, joined by “and”; a condition that tells them apart may be missing. Equal entries are not always repeated.

Description for Huh-7 (human hepatoma): The above tumor cell line derived from ATCC was cultured in an incubator with 5% CO2 at 37° C. The cell line was subcultured twice per week by trypsinization. Cells in the logarithmic growth phase were used for plating.
The concentration of the cells was adjusted to 2×10^4 cells/ml (about 2.0×10^3 cells/well).
(3) 100 μl of a cell suspension was added to each well in the culture plate, and a cell-free culture solution was added to the blank control wells.
Dosing: 5 μl of the compound working solution (20×) was taken and added to the cell culture plate. 5 μl of a mixed solution of DMSO-cell culture solution was added to the solvent control and the blank control.
The 96-well culture plate was put back to the incubator for culture for 48 hours.
The following steps were performed according to the instructions of the Promega CellTiter-Glo Luminescent Cell Viability Assay Kit (Promega-G7571).
(6) 80 μl of the CellTiter-Glo working solution was added to each well. The cell plate was covered with aluminum foil to protect it from light.
The culture plate was shaken on an orbital shaker for 2 minutes to induce cell lysis.
The culture plate was allowed to stand at room temperature for 10 minutes to stabilize a luminescent signal.

As to `Nc1ncnc2c1ncn2[C@@H]1O[C@H](CO)C[C@H]1O` [3′-deoxyadenosine], the IC50 in the data set on Huh-7 (human hepatoma) was found to be 1.35 µM; in data set [2], 0.85 µM. Also, the inhibition of proliferation entry in data set [1] is listed as “could inhibit the proliferation”.
As for `O=c1[nH]cc(F)c(=O)[nH]1` [5-fluorouracil], the inhibition rate in [3] came to 67.5%.
For `CCCCCOC(=O)Nc1nc(=O)n([C@@H]2O[C@H](C)[C@@H](O)[C@H]2O)cc1F` [capecitabine], the inhibition rate in data set [4] is listed as 57.8%; in data set [5], 80.1%. In addition, in data set [6] (11th day of the experiment, 7 mice per group), the experimental animals died came to 5. Besides, the tumor inhibition rate in data set [6] (11th day, vs normal saline group) is given as 86.1%.
In the case of `N.N.[Cl][Pt][Cl]` [cisplatin], the mice died entry in data set [7] (cisplatin 5 mg/kg/day, 7th day, 7 mice per group) is “two nude mice died”; in data set [7] (cisplatin 5 mg/kg/day, 10th day, 7 mice per group), 4. The “mice died (total)” value in data set [7] (cisplatin 5 mg/kg/day, reduced to 2.5 mg/kg on the 15th day, 18th day, 7 mice per group) was 5 and 5/7. For the same compound, the “inhibitory effect on tumor growth” value in [7] (high-dosage cisplatin (5 mg/kg)) is “good inhibitory effect on tumor growth”.
As for `COc1cccc2c1C(=O)c1c(O)c3c(c(O)c1C2=O)C[C@@](O)(C(=O)CO)C[C@@H]3O[C@H]1C[C@H](N)[C@H](O)[C@H](C)O1` [doxorubicin], the tumor-growth inhibition rate amounted to 21.4% in data set [8] (doxorubicin 60 mg/kg/week (20 mg/kg each time, 3 times/week), 14th day) and 25.7% in data set [9]. Moreover, the experimental animals died entry in data set [8] (doxorubicin 60 mg/kg/week, 14th day of the experiment, 7 mice per group) was “one experimental animal in this group died”. Also, the results for the IC50 (in the data set on Huh-7 (human hepatoma); in data set [2]) were 1.2 µM and 0.51 µM, respectively.
In turn, `CC(=O)O[C@H]1C(=O)[C@@]2(C)[C@H]([C@H](OC(=O)c3ccccc3)[C@]3(O)C[C@H](OC(=O)[C@H](O)[C@@H](NC(=O)c4ccccc4)c4ccccc4)C(C)=C1C3(C)C)[C@]1(OC(C)=O)CO[C@@H]1C[C@@H]2O` [paclitaxel] returned an IC50 in [2] of 0.742 µM.
